Assay results: US10351525B2, “Beta lactamase inhibitors” (Oxford University Innovation Limited, priority 2014, dated 2019)

Legend:
NDM-1 = target: T1, NDM-1 (Klebsiella pneumoniae, UniProt C7C422); experiment: biochemical
T1 construct: made in house; host or cells: Escherichia coli
Description: (§1) Recombinant forms of NDM-1, NDM-1 M67C, VIM-1, VIM-2, SPM-1, IMP-1 and BcII MBLs were produced in Escherichia coli as described in J. Med. Chem. 56, 6945-6953 (2013) and Makena et al Chem MechCHem 8, 1923-9 (2013). Purified VIM-2 protein was dialysed into fresh crystallization buffer (50 mM HEPES pH 7.5, 150 mM NaCl and […], concentrated to 7.5 mg/mL and used for crystallographic analyses.
(§2) Kinetic and inhibition analyses and UV-VIS studies^16 against bacterial MBLs were performed as described by Van Berkel et al in J. Med. Chem. 56, 6945-6953 (2013) and Makena et al Chem MechCHem 8, 1923-9 (2013).
(§3) The experiments were performed by using a NovaStar microplate reader (using path length correction) and were performed at r.t. (24-25° C.). All enzymes and substrates were dissolved in the assay buffer: 50 mM HEPES-NaOH buffer (pH 7.2) supplemented with 1 μg/mL BSA (to minimize the denaturation of the enzyme), 1 μM ZnSO4 and 0.01% Triton 100. Screening was carried out against a panel of MBLs including NDM-1, VIM-1, VIM-2, SPM-1 (Sao Paulo MBL-1) and IMP-1 and the non-clinically relevant model MBL Bacillus cereus (BcII).
(§4) The kinetic values determined were the means from at least three independent measurements. […] The IC50 values were determined from the plot of activity (steady state rate) versus inhibitor concentration using the same software. […]

VIM-2 = target: T2, VIM-2 (Escherichia coli, UniProt Q5U7L7); experiment: MBL screening assay (IC50), VIM-2; format: biochemical
T2 construct: made in house; host or cells: Escherichia coli
Description: as §1, §2, §3
The kinetic values determined were the means from at least three independent measurements. At least six different concentrations of the substrate or inhibitor were used to determinate the kinetic parameters (KM, kcat and IC50). Determination of the steady state kinetic parameters for the hydrolysis of different substrates (KM and kcat) was performed by fitting the initial velocity data to the Michaelis-Menten equation using the software package Graph Prism 5.01. The IC50 values were determined from the plot of activity (steady state rate) versus inhibitor concentration using the same software.
IC50 values (concentration required to affect 50% inhibition of enzyme activity) were determined by preincubation of the appropriate amount of enzyme with the desired compound in the assay buffer for 10 min at r.t. prior to the initiation of the assay by the addition of the substrate. The compounds for inhibition study were prepared in 1 to 100 mM DMSO stock solutions.

IMP-1 = target: T3, IMP-1 (Serratia marcescens, UniProt P52699); experiment: MBL screening assay (IC50), IMP-1; format: biochemical
T3 construct: made in house; host or cells: Escherichia coli
Description: as §1, §2, §3, §4

BcII = target: T4, BcII (Bacillus cereus, UniProt P04190); experiment: MBL screening assay (IC50), BcII; format: biochemical
T4 construct: made in house; host or cells: Escherichia coli
Description: as §1, §2, §3, §4

PBP5 (dacA) from E. coli = PBP5 (dacA) from E. coli (Escherichia coli, UniProt P0AEB2); experiment: Inhibition studies for penicillin binding proteins, PBP5; format: biochemical; details: for remaining activity at 100 µM: read-out: RA (residual activity); as to Inhibition verdict: key: N.I.—not inhibited
Description: (§5) To investigate the selectivity of ML302/ML302F for bacterial MBLs, activity was tested against TEM-1 (a Class A SBL), PBP-5 (penicillin-binding protein 5 or dacA) and PBP-6 (penicillin-binding protein 6, or dacC) from E. coli, hHAT (human histone acetyltransferase) and hHDAC (human histone deacetylase). TEM-1, PBP-5 and -6 and hHAT are known to be inhibited by rhodanines. Selectively against hACE-2 (Angiotensin converting enzyme 2) and hHAGH (Hydroxyacylglutathione hydrolase, human Glyoxylase II) was also tested.
The inhibition analyses were performed using the method previously described for PBP-3 (van Berkel, S. S. et al. Binding of (5 S)-penicilloic acid to penicillin binding protein 3.ACS Chem. Biol. 8, 2112-2116 (2013)). In brief: ML302 and ML302F were initially screened at a single concentration (100 μM) in duplicate. Inhibition of the PBP acylation rate by the chromogenic β-lactam Nitrocefin was determined by pre-incubation of the appropriate amount of enzyme (dacA 2 μM and dacC 6.8 μM, respectively) and inhibitor in the assay buffer (50 mM HEPES-NaOH buffer (pH 7.2) supplemented with 200 mM NaCl and 0.01% Triton 100) for 10 min. at r.t. prior to the initiation of the assay by the addition of nitrocefin (100 μM final concentration). The hydrolysis of Nitrocefin was monitored by following the variation in absorbance at 492 nm using 96 well flat bottom plates (UV-STAR Microplate (655801) or Greiner Bio-One). The experiments were performed using a PHERAstar FS—BMG Labtech microplate reader (using path length correction) at r.t. (24-25° C.). All enzymes and inhibitors were prepared in the assay buffer.

hHAT = target: T5, hHAT (Homo sapiens, UniProt Q09472); experiment: Inhibition studies hHAT (HAT Assay Kit); format: biochemical; as to Inhibition verdict: key: N.I.—not inhibited
T5 construct: purchased Active Motif 56100
T5 sequence (Q09472 1284-1673 limits assumed): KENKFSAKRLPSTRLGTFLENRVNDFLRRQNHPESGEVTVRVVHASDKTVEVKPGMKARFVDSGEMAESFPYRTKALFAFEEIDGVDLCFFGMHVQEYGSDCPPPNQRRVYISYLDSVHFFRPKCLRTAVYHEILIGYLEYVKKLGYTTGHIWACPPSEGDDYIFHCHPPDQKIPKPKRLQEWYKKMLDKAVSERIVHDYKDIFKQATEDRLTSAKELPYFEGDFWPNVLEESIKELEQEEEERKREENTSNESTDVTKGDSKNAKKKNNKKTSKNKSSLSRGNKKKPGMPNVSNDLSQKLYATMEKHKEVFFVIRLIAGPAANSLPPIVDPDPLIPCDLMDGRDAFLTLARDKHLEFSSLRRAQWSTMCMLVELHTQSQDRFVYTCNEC
Description: as §5
The inhibition analyses for human histone acetyltransferases (HAT), HDAC hHDAC (human histone deacetylase), hACE-2 (Angiotensin converting enzyme 2) and hHAGH (Hydroxyacylglutathione hydrolase, human Glyoxylase II) were performed using the commercially available HAT Assay Kit (Active Motif, catalogue No. 56100 (2009)), hHDAC (Active Motif, catalogue No. 56200 (2013)), hACE-2 (ACE-2 (R&D Systems) and hHAGH ((R&D Systems).

E. coli 98 = experiment: MIC of MEM with and without ML302F (1:8), VIM-4 producer; format: cell-based; details: Escherichia coli; E. coli 98 (VIM-4); MEM alone or with ML302F (1:8)
Description: (§6) In a further study, antimicrobial activities of MEM and ML302F alone and in combination were assessed in-vitro against 31 VIM-producing clinical isolates.

K. oxytoca 126 = experiment: as above; format: cell-based; details: Klebsiella oxytoca; K. oxytoca 126 (VIM-4); MEM alone or with ML302F (1:8)
Description: as §6

K. oxytoca 95 = experiment: as above; format: cell-based; details: Klebsiella oxytoca; K. oxytoca 95 (VIM-4); MEM alone or with ML302F (1:8)
Description: as §6

PBP5 (dacA) from E. coli, sequence (P0AEB2 30-403): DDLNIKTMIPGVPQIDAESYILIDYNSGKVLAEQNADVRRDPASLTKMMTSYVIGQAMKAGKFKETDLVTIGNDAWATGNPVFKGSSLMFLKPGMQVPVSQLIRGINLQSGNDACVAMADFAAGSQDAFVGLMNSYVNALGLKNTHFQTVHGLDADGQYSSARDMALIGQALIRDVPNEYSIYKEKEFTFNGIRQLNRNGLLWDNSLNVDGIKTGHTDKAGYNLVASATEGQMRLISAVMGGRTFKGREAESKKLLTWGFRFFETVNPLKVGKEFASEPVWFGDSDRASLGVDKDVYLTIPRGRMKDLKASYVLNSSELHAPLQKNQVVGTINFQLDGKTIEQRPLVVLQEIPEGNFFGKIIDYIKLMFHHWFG
T4 sequence (P04190 31-257): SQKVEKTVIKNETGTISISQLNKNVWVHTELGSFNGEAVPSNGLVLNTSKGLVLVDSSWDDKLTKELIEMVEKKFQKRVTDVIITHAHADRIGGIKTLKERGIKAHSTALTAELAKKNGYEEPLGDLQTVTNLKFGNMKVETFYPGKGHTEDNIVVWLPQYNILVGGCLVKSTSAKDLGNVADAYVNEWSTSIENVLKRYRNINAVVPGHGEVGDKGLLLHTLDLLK
T3 sequence (P52699 19-246 limits assumed): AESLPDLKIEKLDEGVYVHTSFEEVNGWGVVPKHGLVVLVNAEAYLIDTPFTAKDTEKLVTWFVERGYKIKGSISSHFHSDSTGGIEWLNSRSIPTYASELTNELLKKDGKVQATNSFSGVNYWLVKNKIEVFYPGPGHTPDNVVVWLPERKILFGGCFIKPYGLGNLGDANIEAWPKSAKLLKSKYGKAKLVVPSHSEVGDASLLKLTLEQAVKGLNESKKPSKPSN

Structure (SMILES) | IC50 (NDM-1) | IC50 (VIM-2; IC50, VIM-2) | IC50 (VIM-2; IC50 value against VIM-2 obtained using this assay, VIM-2) | IC50 (IMP-1) | IC50 (BcII) | remaining activity at 100 µM (PBP5 (dacA) from E. coli) | Inhibition verdict (hHAT) | RA (residual activity) (hHAT) | Inhibition verdict (PBP5 (dacA) from E. coli; 100 μM) | MIC (E. coli 98) | MIC (K. oxytoca 126) | MIC (K. oxytoca 95)
CN1CCN(NC(=O)CN2C(=O)C(=Cc3c(Cl)ccc(Cl)c3Cl)SC2=S)CC1 (mixture of isomers) [ML302, N-(4-Methylpiperazin-1-yl)-2-(4-oxo-2-thioxo-5-(2,3,6-trichlorobenzylidene)thiazolidin-3-yl)acetamide] | 9440 ± 1440 nM | 490 ± 180 nM | 498 ± 18 nM | 175 ± 60 nM | 500 ± 150 nM | 105 ± 5.7% | N.I. | 93 ± 15% | – | – | – | –
O=C(O)C(S)=Cc1c(Cl)ccc(Cl)c1Cl (racemic) [ML302F, 2-Mercapto-3-(2,3,6-trichlorophenyl)acrylic acid] | 1050 ± 300 nM | 300 ± 90 nM | – | 2.88 nM | 20 nM | 99.2 ± 6.4% | N.I. | 85 ± 9% | N.I. | – | – | –
C[C@@H](O)[C@H]1C(=O)N2C(C(=O)O)=C(S[C@@H]3CN[C@H](C(=O)N(C)C)C3)[C@H](C)[C@H]12 [Meropenem, meropenem] | – | – | – | – | – | – | – | – | – | 16 µg/mL | 32 µg/mL | 32 µg/mL
